# Experimental data: BindingDB's records for doi:10.1016/j.bmc.2006.10.028 (Kirin Brewery, 2006)
# Experiment: Inhibition of MCP1-induced chemotaxis in U937 cells overexpressing CCR2
row,SMILES,IC50
1,Nc1cccc(CN2CC[C@@H](Nc3cccc4cnccc34)C2)c1 [(3R)-N-[1-(3-aminobenzyl)-3-pyrrolidyl]-N-(5-isoquinolyl)amine],1 µM
2,Nc1cccc(CN2CC[C@H](Nc3cccc4cnccc34)C2)c1 [(3S)-N-[1-(3-aminobenzyl)-3-pyrrolidyl]-N-(5-isoquinolyl)amine],30 µM
3,"Fc1cccc(F)c1CN1CCC(Nc2cccc3cnccc23)C1 (stereo unspecified) [N-(1-(2,6-difluorobenzyl)pyrrolidin-3-yl)isoquinolin-5-amine]",10 µM
4,Nc1cccc(CN2CCC(Nc3cccc4cnccc34)C2)c1 (stereo unspecified) [N-(1-(3-aminobenzyl)pyrrolidin-3-yl)isoquinolin-5-amine],20 µM
5,Clc1cccc(CN2CCC(Nc3cccc4cnccc34)C2)c1 (stereo unspecified) [N-(1-(3-chlorobenzyl)pyrrolidin-3-yl)isoquinolin-5-amine],14 µM
6,Nc1ccc(CN2CCC(Nc3cccc4cnccc34)C2)cc1 (stereo unspecified) [N-(1-(4-aminobenzyl)pyrrolidin-3-yl)isoquinolin-5-amine],15 µM
7,Nc1ccccc1CN1CCC(Nc2cccc3cnccc23)C1 (stereo unspecified) [N-[1-(2-aminobenzyl)-3-pyrrolidyl]-N-(5-isoquinolyl)amine],14 µM
8,Clc1ccccc1CN1CCC(Nc2cccc3cnccc23)C1 (stereo unspecified) [N-[1-(2-chlorobenzyl)-3-pyrrolidyl]-N-(5-isoquinolyl)amine],17 µM

# More lines, now with the values ahead:
row,IC50,SMILES
1,23 µM,Clc1ccc(CN2CCCC(Nc3cccc4cnccc34)C2)cc1 (stereo unspecified) [N-(1-(4-chlorobenzyl)piperidin-3-yl)isoquinolin-5-amine]
2,11 µM,Clc1ccc(CN2CCC(Nc3cccc4cnccc34)C2)cc1 (stereo unspecified) [N-(1-(4-chlorobenzyl)pyrrolidin-3-yl)isoquinolin-5-amine]
3,22 µM,Fc1ccc(CN2CCC(Nc3cccc4cnccc34)C2)cc1 (stereo unspecified) [N-[1-(4-fluorobenzyl)-3-pyrrolidyl]-N-(5-isoquinolyl)amine]
